Laboratory results from patent US9802929B2, “Benzo five-membered nitrogen heterocyclic piperidine or piperazine derivatives and preparation methods and pharmaceutical compositions thereof” (Shenyang Haiwang Biotechnology Co., Ltd., priority 2012, dated 2017).
Values joined by “and” are separate entries in the source; they are usually repeats but may differ in a detail not shown here. Identical values can stand only once. Counter-ions that a name gives are not always drawn.

Columns and labels:
[1] = Acute toxicity test, simplified probability unit method; settings: both sexes, mouse, in vivo; oral administration, Kunming mice
[2] = test system: In-Vitro Vascular Smooth Muscle of Rabbits; assay: Relaxant effect on in vitro rabbit vascular smooth muscle contraction induced by hyperkalemia solution; settings: Oryctolagus cuniculus, relaxation of rabbit aortic rings contracted by hyperkalemia solution (K+ 60 mmol/L)
Ca^2+ channel = assay: Antagonism of CaCl2 cumulative contraction of rabbit aorta, pA2; settings: CaCl2 cumulative contraction after Ca-free hyperkalemia depolarization
Text: Calcium-free K—H solution: Remove CaCl2 from K—H solution, add an equal number of moles of KCl, and add EDTA^−2Na^+ 0.1 mmol/L, while the other components remain unchanged.
Calcium-free hyperkalemia solution: Remove CaCl2 from hyperkalemia solution, add an equal number of moles of KCl, and add EDTA^−2Na^+ 0.1 mmol/L, while the other components remain unchanged.
(§1) Cut the chest open quickly after stunning, strip out the descending aorta, then after removing the surrounding connective tissue and adipose tissue (if performed serotonin receptor antagonist experiments, endothelial cells should be removed using a smooth stainless steel bars), cut the vessels into 3-5 mm vascular ring, then pass the steel hook through the blood vessel ring, with one end is fixed to the vent hook and the other end connected to the tension transducer, then place the specimens into bath tube containing 20 mL of nutrient solution, and record tension change by tension transducer. Maintain tube temperature at 37±0.5° C., and pass bubbles (95% O2+5% CO2) into the solution as a speed of 1-2 bubbles/minute. Place an initial load of 1.5 g on the rings, and change nutrient every 20 minutes, then balance for 2 hours and start test after baseline readings are stabilized.
After the tension is stabilized, wash the specimen three times and incubate with Ca-free K—H solution for 40 minutes; depolarize with Ca-free hyperkalemia solution for 20 minutes, and then add CaCl2 (10^−6-10^−2 mol/L) to the tube until a maximum response is achieved, and then record the curve. Then wash with K—H solution repeatedly, and replace with fresh K—H solution every 20 minutes; after balancing for 60 minutes and the baseline values are stabilized, wash the specimen again three times, and incubate with Ca-free K—H solution for 40 minutes; depolarize with Ca-free hyperkalemia solution for 20 minutes, and then add compound II-36 (3×10^−6 mol/L) to the tube, and incubate for 20 minutes; then add CaCl2 (10^−6-10^−2 mol/L) until a maximum response is achieved, and then record the curve. Mark CaCl2 contraction as ordinate using maximum response as 100% base. […] PA2 value of compound II-36 is 5.61±0.04 against CaCl2 contraction effect on rabbit aorta.
After the tension is stabilized, wash the specimen three times and incubate with Ca-free K—H solution for 40 minutes; depolarize with Ca-free hyperkalemia solution for 20 minutes, and then add CaCl2 (10^−6-10^−2 mol/L) to the tube until a maximum response is achieved, and then record the curve. […]

Kunming mice = assay: Bone marrow micronucleus test; settings: of 1000 polychromatic erythrocytes; oral, four days, test on the 5th day; II-36 120 mg/kg/day, cyclophosphamide 60 mg/kg/day
Experimental: After four days of continuous administration, perform bone marrow micronucleus test on the 5th day.
Positive contro, Cyclophosphamide 60 mg/kg/day; negative control, saline solution 0.1 ml/10 g/day. After four days of continuous administration, perform bone marrow micronucleus test on the 5th day.
The mice were sacrificed by cervical dislocation, and quickly stripped out of the femur and sternum;
blood and muscles were removed, epiphysis was cleaned; then sternum bone marrow was transfer with a hemostat squeeze onto clean slides with drops of calf serum or wash the femoral the marrow with fetal calf serum directly onto clean slides; after mixing, adjust slides well; then put the adjusted and aired slide into a staining jar filled with methanol, and allow to fix for 15 minutes; and then take it out and place in air until dry out; then, use freshly prepared Giemsa application solution (one sample of Giemsa stock solution and nine samples of phosphate buffer pH 6.8), stained for 10 minutes to wash away slide dye with small stream of water, and then observe under a microscope after it is dried.

α1 receptors = assay: Antagonism of α receptor agonist (noradrenaline / phenylephrine) cumulative contraction of rabbit aorta, pA2
Text: as §1
After the tension is stabilized, record a certain length of the curve, and add NA (10^−8-10^−4 mol/L) to the tube until a maximum response is achieved, and then record the curve. Then wash the specimen with K—H solution repeatedly, balance for 1 h, add compound II-36 (3×10^−7 mol/L), and 20 minutes later, add NA following a same procedure. Mark NA contraction as ordinate using maximum response as 100% base. […] The larger the PA2 value, the stronger the antagonist effect. It is calculated based on the values of the attached figures by software.
After the tension is stabilized, record a certain length of the curve, and add NA (10^−8-10^−4 mol/L) to the tube until a maximum response is achieved, and then record the curve. Then wash the specimens repeatedly with K—H solution, and refresh K—H solution every 20 minutes, and balance for 60 minutes to allow baseline values are stabilized; then add doxazosin (10^−7 mol/L) and after 15 minutes, add NA in the same way (10^−8-6×10^−5 mol/L). Mark NA contraction as ordinate using maximum response as 100% base. […] The PA2 value of positive control doxazosin is 7.52±0.04 against NA contraction of rabbit aorta.
(§2) After the tension is stabilized, record a certain length of the curve, and add NA (3×10^−7-6×10^−5 mol/L) to the tube until a maximum response is achieved, and then record the curve. Then wash the specimen with K—H solution repeatedly, balance for 1 h, add compound II-65 (3×10^−6 mol/L), and 20 minutes later, add NA (3×10^−7-3×10^−4 mol/L) following a same procedure. Mark NA contraction as ordinate using maximum response as 100% base. […] PA2 value of compound II-65 is 6.02±0.13 against NA contraction effect on rabbit aorta.
After above procedures, wash the specimen repeatedly with K—H solution, balance for 1 hour, add doxazosin (10^−7 mol/L), and add NA in the same way after 15 minutes. Mark NA contraction as ordinate using maximum response as 100% base. […] The PA2 value of positive control doxazosin is 7.16±0.24 against NA contraction of rabbit aorta.
as §2, with “Phenylephrine (10^−6-6×10^−3” for “NA (3×10^−7-6×10^−5”, “II-68 (3×10^−8” for “II-65 (3×10^−6”, “Phenylephrine” for “NA (3×10^−7-3×10^−4 mol/L)”, “Phenylephrine” for “NA”, “II-68” for “II-65”, “8.45±0.03” for “6.02±0.13”

## Clc1cccc(C2CCN(CCCCn3nnc4ccccc43)CC2)c1 [II-2, N-(4-(1H-benzotriazole-1-yl)butyl)-4-(3-chlorophenyl)piperidine]
[1]
  LD50: 362 mg/kg
[2]
  EC50: 15.1 µM

## CCOC(=O)C1=C(COCCN)NC(C)=C(C(=O)OC)C1c1ccccc1Cl (stereo not drawn) [amlodipine, Amlodipine Besylate, reference compound]
Ca^2+ channel
  PA2 value against CaCl2 contraction: 6.99±0.05 and 7.15±0.288

## O=P1(N(CCCl)CCCl)NCCCO1 (stereo not drawn) [cyclophosphamide, Cyclophosphamide, reference compound]
Kunming mice
  polychromatic erythrocytes with micronucleus: 12 ‰

## COc1cc2nc(N3CCN(C(=O)C4COc5ccccc5O4)CC3)nc(N)c2cc1OC (stereo not drawn) [doxazosin, Doxazosin Mesylate, reference compound]
α1 receptors; Phenylephrine cumulative contraction
  PA2 value against Phenylephrine contraction: 7.52±0.04
α1 receptors; noradrenaline (NA) cumulative contraction
  PA2 value against NA contraction: 7.52±0.04 and 7.16±0.24
